Data set [1] concerns L6 myoblasts. In words: Intracellular ROS determination (DCF assay) in L6 myoblasts. It counts as cell-based, rat. Particulars: for antioxidant activity in cells, DCF assay: L6 and THP-1 cells; for activity at 10 µM: Rattus norvegicus, L6, 10 min, L-6 cells, compound 10 µM, 200 µM cumene hydroperoxide, ΔF/10 min, read-out: Intracellular ROS, DCF fluorescence (Mean) relative to cumene hydroperoxide alone (100%). As to the method:
(§1) The fluorometric DCF assay is a useful technique to evaluate the antioxidant activity of compounds in cells exposed to oxidative stress induced by cumene hydroperoxide. The analyses were carried out in two different cell lines particularly sensitive to radical production: L6 myoblasts from rat skeletal muscle and THP-1 human leukemic monocytes.
(§2) The antioxidant activity of each compound was measured by a standard intracellular fluorescent probe (DCF) assay using L6 myoblasts and THP-1 monocytes exposed to oxidative stress by the addition of cumene hydroperoxide, a radical generator. Fluorescence was measured over a 10-min period, and the ability of the compounds to eliminate the increased ROS production was determined. For L6 myoblasts, growing attached to the bottom of the flask, the medium was discarded and cells were washed twice with 5 mL phosphate buffered saline (PBS) containing 5.0 mM glucose (PBS-glucose) at 37 °C. Cells were gently scraped off with PBS-glucose at 37 °C and centrifuged at 1200 rpm for 5 min (approximately 100× g). The supernatant was discarded and the pellet resuspended in PBS-glucose. Incubation with the probe DCFH2-DA at a final concentration of 10 µM (from a stock solution of 10 mM in DMSO) was carried out for 30 min at 37 °C in the dark. At the end of the incubation, cells were washed twice, centrifuged at 1200 rpm for 5 min, and the final cell pellet was resuspended in PBS-glucose. Before the experiment was initiated, cells were allowed to recover for 1 h at room temperature in the dark. The THP-1 monocytes, growing in suspension, were centrifuged at 1200 rpm for 10 min. The supernatant was discarded, and cells were washed twice with 5 mL PBS-glucose at 37 °C to remove the serum. The pellet was successively resuspended in PBS-glucose, and the probe DCFH2-DA was added at 10 µM final concentration. From that point onwards, the protocols for the two cell types were identical. Intracellular fluorescence was measured at 37 °C using a Perkin Elmer VICTOR 3V spectrofluorometer (excitation at λ = 498 nm and emission at λ = 530 nm). […] Cells were incubated with compounds at the final designated concentration for 10 min at 37 °C before addition of the radical generator. The decrease in the intracellular DCF fluorescence relative to the fluorescence change induced by 200 μM cumene hydroperoxide alone (100%), reported as ΔF/10 min, determined the antioxidant activities. Data are reported as the mean ± standard deviation of at least four different experiments carried out in triplicate. One-way ANOVA test (non-parametric) and Bonferroni post-test (comparing all pairs of columns) were used for the statistical analyses.

A short description of data set [2]: ABTS assay (TEAC). The following applies: for Trolox Equivalent Antioxidant Capacity (TEAC): ethanol, room temperature, 734 nm, 2 min, extrapolated at 10 μM, Trolox mM equivalent. As to the method:
The antioxidant capacity of compounds 1–12 was measured according to the method of Pellegrini et al. but working at room temperature. 6-Hydroxy-2,5,7,8-tetramethylchroman-2-carboxylic acid (Trolox) was used as reference. The analyses were carried out in ethanol (0.2% of water) at room temperature and the absorbance was measured at λ = 734 nm. Each sample (1.0 mL) of ABTS^+• was obtained from the aqueous mother solution by dilution with ethanol to an absorbance of […], and 10 μL of the ethanol solution of the antioxidant was added. All compounds were analyzed at four different final concentrations ranging from 1 to 10 μM. The absorbance was measured after 2 min. Four measurements were recorded for each concentration. Each time blanks of pure solvent were run. The standard deviations of data were all below 5%. The dose-response curves were expressed as the percentage of absorbance decrease (ABTS inhibition expressed as percentage) against the amount of antioxidant concentration. Linear regression was conducted using GraphPad Prism 4.01 (2004) software. The antioxidant capacities were extrapolated at 10 μM concentration and reported as Trolox Equivalent Antioxidant Capacity (TEAC), defined as the concentration (mmol/L) of Trolox having the antioxidant capacity equivalent to that of a 1.0 mmol/L solution of the substance under investigation. Results are expressed as mean ± standard deviation. Statistical analyses were performed using the Student’s t test. The level of significance was p < 0.05 for all data.

Data set [3] concerns THP-1 human leukemic monocytes. Briefly: Intracellular ROS determination (DCF assay) in THP-1 monocytes. It counts as cell-based. Particulars: 10 min, THP-1 cells, compound 10 µM, 200 µM cumene hydroperoxide, ΔF/10 min, read-out: Intracellular ROS, DCF fluorescence (Mean) relative to cumene hydroperoxide alone (100%). As to the method:
as §1, §2

A short description of data set [4]: Measurement of partition coefficient (logP) by UV-Vis spectrophotometry. It counts as physicochemical. Particulars: 1-octanol / phosphate buffer 0.1 M pH 7.4; mean of triplicate determinations. The source says: Lipophilicity is a relevant property to estimate the bioavailability and dispersion of a molecule in non-aqueous media (oils, fats, and emulsions) and in the cellular environment. Generally, it can be related to logP, a parameter that evaluates the partition of a molecule between two immiscible solvents (water and 1-octanol). […] As already reported in the literature, the lipophilic character increased from hydroxytyrosol 6 to homovanillyl alcohol 5 and tyrosol 4.
The logP value of all compounds was determined as reported in the literature by UV-Vis spectrophotometry. The partition coefficient (logP) was calculated according to the following relationship: logP = logAx/(A0 − Ax). A0 was the maximum of absorbance of a solution 0.15 mM of each compound dissolved in 1-octanol; Ax is the maximum of absorbance of the organic solution containing the compound after separation from the phosphate buffer (0.1 M, pH 7.4) solution. A solution of 1-octanol saturated with the buffer was used as a blank.

The test system of data set [5] is L6 cells. In words: Proliferation curves (cell counts) in L6 cells. It counts as cell-based, rat. Particulars: 10 µM, absence or presence of cumene hydroperoxide 40 µM. As to the method: (§3) L6 cells were seeded in 60 × 15 mm Petri dishes in 4 mL of the complete growth medium at a density of approximately 10^5 cells/well. The following day, the cells were exposed to the selected compounds 1, 5–7, 11, and 12 at a final concentration of 10 µM in the absence and presence of cumene hydroperoxide (40 µM). Cell counts using a Neubauer chamber were made every 24 h up to confluence. Each time the L6 myoblasts had to be counted, they first underwent a mild trypsinization. THP-1 cells were seeded in 24-well plates in 1 mL of the growth medium. After 24 h, the cells were exposed to 10 µM of the same compounds in the absence and presence of cumene hydroperoxide (200 µM) and incubated for an additional 24 h. Cell counts using a Neubauer chamber were made every 24 h up to confluence. The results are given as the mean ± standard deviation of two different experiments.

Data set [6] has as its system THP-1 cells. In words: Proliferation curves (cell counts) in THP-1 cells. Particulars: 10 µM, absence or presence of cumene hydroperoxide 200 µM. It counts as cell-based, human. As to the method:
as §3

Counter-ions that a name gives are not always drawn.

Turning to `OCCc1ccccc1` [Compound 1, phenethyl alcohol], in data set [1], the “antioxidant activity in cells, DCF assay” value is recorded as “good antioxidant activity” and the activity at 10 µM turned out to be 31%. Also, in data set [2], the “antiradical activity / antioxidant capacity in ABTS assay” value was “very low antiradical activity” and the “Trolox Equivalent Antioxidant Capacity (TEAC)” value was 0.00 mM. Moreover, the activity at 10 µM in data set [3] amounted to 33%.

On to `OCCc1ccccc1O` [Compound 2, 2-hydroxyphenethyl alcohol], for which, in data set [1], the activity at 10 µM amounted to 23%. For the same compound, the logP in data set [4] was found to be 0.72 ± 0.07. Besides, in data set [2], the “antiradical activity / antioxidant capacity in ABTS assay” value was “good antioxidant capacity” and the “Trolox Equivalent Antioxidant Capacity (TEAC)” value is 0.69 mM. Also, in data set [3], the activity at 10 µM turned out to be 25%.

For `OCCc1cccc(O)c1` [Compound 3, 3-hydroxyphenethyl alcohol], the activity at 10 µM in data set [1] is 25%; in data set [3] it was 23%. The compound also came in with a logP in data set [4] of 0.66 ± 0.06. For the same compound, in data set [2], the “Trolox Equivalent Antioxidant Capacity (TEAC)” value was 0.43 mM.

`OCCc1ccc(O)cc1` [Compound 4, 4-hydroxyphenethyl alcohol]: the results for the activity at 10 µM in data set [1] and in data set [3] were 41% and 25%, respectively. The same compound gave a logP in data set [4] of 0.69 ± 0.05. Also, in data set [2], the “Trolox Equivalent Antioxidant Capacity (TEAC)” value is listed as 0.45 mM.

In the case of `COc1cc(CCO)ccc1O` [Compound 5, 4-hydroxy-3-methoxyphenethyl alcohol], the activity at 10 µM in data set [1] came to 22%; in data set [3], 21%. For the same compound, the entries for the “effect on cell proliferation (cell counts)” value in data set [5] and in data set [6] were “promoted L6 myoblast proliferation” and “inhibited THP-1 tumor cell growth”, respectively. The compound further registered a logP in data set [4] of 0.46 ± 0.02. For the same compound, the “antiradical activity / antioxidant capacity in ABTS assay” value in data set [2] is “good antioxidant capacity”. In data set [2], the “Trolox Equivalent Antioxidant Capacity (TEAC)” value is 0.81 mM.

As to `OCCc1ccc(O)c(O)c1` [Compound 6, 3,4-dihydroxyphenethyl alcohol], the activity at 10 µM in data set [1] was determined as 7%. This compound also had a logP in data set [4] of 0.1 ± 0.01. In addition, in data set [2], the “antiradical activity / antioxidant capacity in ABTS assay” value was “good antioxidant capacity” and the “Trolox Equivalent Antioxidant Capacity (TEAC)” value is 0.68 mM. Also, the activity at 10 µM in data set [3] stood at 14%.

As to `O=C(OCCc1ccccc1)C(F)(F)F` [Compound 7, Phenethyl trifluoroacetate], in data set [1], the “antioxidant activity in cells, DCF assay” value is “good antioxidant activity” and the activity at 10 µM worked out at 29%. The same compound gave a logP in data set [4] of 2.38 ± 0.18. Besides, in data set [2], the “antiradical activity / antioxidant capacity in ABTS assay” value is “very low antiradical activity” and the “Trolox Equivalent Antioxidant Capacity (TEAC)” value is 0.00 mM. Also, the activity at 10 µM in data set [3] came to 30%.

For `O=C(OCCc1ccccc1O)C(F)(F)F` [Compound 8, 2-Hydroxyphenethyl trifluoroacetate], the values for the activity at 10 µM in data set [1] and in data set [3] were 26% and 25%, respectively. Also, the lipophilicity (logP) in data set [4] is 2.05 ± 0.16. In addition, in data set [2], the “antiradical activity / antioxidant capacity in ABTS assay” value was “good antioxidant capacity”. In addition, in data set [2], the “Trolox Equivalent Antioxidant Capacity (TEAC)” value is recorded as 0.75 mM.

For the compound `O=C(OCCc1cccc(O)c1)C(F)(F)F` [Compound 9, 3-Hydroxyphenethyl trifluoroacetate], the activity at 10 µM in data set [1] worked out at 25%; in data set [3], 28%. Besides, in data set [4], the logP was determined as 1.96 ± 0.14. The “Trolox Equivalent Antioxidant Capacity (TEAC)” value in data set [2] is 0.38 mM.

Turning to `O=C(OCCc1ccc(O)cc1)C(F)(F)F` [Compound 10, 4-Hydroxyphenethyl trifluoroacetate], the activity at 10 µM was 21% in data set [1] and 20% in data set [3]. Also, in data set [4], the log partition coefficient (logP) came to 1.98 ± 0.14. Also, the “Trolox Equivalent Antioxidant Capacity (TEAC)” value in data set [2] is recorded as 0.36 mM.

On to `COc1cc(CCOC(=O)C(F)(F)F)ccc1O` [Compound 11, 4-Hydroxy-3-methoxyphenethyl trifluoroacetate], for which the activity at 10 µM in data set [1] is 20%; in data set [3], 23%. In data set [4], this compound registered a logP of 1.9 ± 0.12. Besides, the “antiradical activity / antioxidant capacity in ABTS assay” value in data set [2] was “good antioxidant capacity”. Besides, the “Trolox Equivalent Antioxidant Capacity (TEAC)” value in data set [2] was 0.87 mM.

Regarding `O=C(OCCc1ccc(O)c(O)c1)C(F)(F)F` [Compound 12, 3,4-Dihydroxyphenethyl trifluoroacetate], the activity at 10 µM came to 4% in data set [1] and 16% in data set [3]. For the same compound, the log partition coefficient (logP) in data set [4] was determined as 1.62 ± 0.12. Besides, in data set [2], the “antiradical activity / antioxidant capacity in ABTS assay” value is reported as “good antioxidant capacity”. The “Trolox Equivalent Antioxidant Capacity (TEAC)” value in data set [2] is given as 0.77 mM.

With `Cc1c(C)c2c(c(C)c1O)CCC(C)(C(=O)O)O2` (stereo not drawn) [Trolox, 6-Hydroxy-2,5,7,8-tetramethylchroman-2-carboxylic acid], the “Trolox Equivalent Antioxidant Capacity (TEAC)” value in data set [2] is given as 1.00 mM.

For orientation: logP means the decadic logarithm of the partition coefficient of the neutral form, usually between octanol and water.

(Values after publication PMC6017616, “Synthesis and Evaluation of the Antioxidant Activity of Lipophilic Phenethyl Trifluoroacetate Esters by In Vitro ABTS, DPPH and in Cell-Culture DCF Assays” (Molecules : A Journal of Synthetic Chemistry and Natural …, 2018).)
